ChEMBL document CHEMBL1201862, “PubChem BioAssay data set” (2004)
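Five compound concentrations were applied to cells in 96-well plates for 48 hours; endpoints were derived by simple linear interpolation of the resulting dose-response curve. GI50 is the concentration that inhibits growth by half.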 Active and inactive are the calls of the source. Rule as the data show it: active = GI50 up to about 1.1 µM and inactive = higher. Non-standard residues stand in square brackets, D forms with d. Residues, ends and D or L forms follow the SMILES beside them. *: point of attachment. Ac5c = NC1(C(=O)O)CCCC1; Cbz = O=C(OCc1ccccc1)*; Boc = CC(C)(C)OC(=O)*; tBu = CC(C)(C)*

What was measured:
Test in all cases: NCI tumour cell line growth inhibition, 48 h
786-0 = tested on: 786-0
A498 = tested on: A498
A549 = tested on: A549
ACHN = tested on: ACHN
CAKI-1 = tested on: CAKI-1
CCRF-CEM = tested on: CCRF-CEM
COLO 205 = tested on: COLO 205
DU-145 = tested on: DU-145
EKVX = tested on: EKVX
HCC 2998 = tested on: HCC 2998
HCT-116 = tested on: HCT-116
HCT-15 = tested on: HCT-15
HL-60 = tested on: HL-60
HOP-62 = tested on: HOP-62
HOP-92 = tested on: HOP-92
HT-29 = tested on: HT-29
Hs-578T = tested on: Hs-578T
IGROV-1 = tested on: IGROV-1
K562 = tested on: K562
KM12 = tested on: KM12
LOX IMVI = tested on: LOX IMVI
M14 = tested on: M14
MCF7 = tested on: MCF7
MDA-MB-231 = tested on: MDA-MB-231
MDA-MB-435 = tested on: MDA-MB-435
MDA-N = tested on: MDA-N
MOLT-4 = tested on: MOLT-4
Malme-3M = tested on: Malme-3M
NCI-H226 = tested on: NCI-H226
NCI-H23 = tested on: NCI-H23
NCI-H460 = tested on: NCI-H460
NCI-H522 = tested on: NCI-H522
NCI/ADR-RES = tested on: NCI/ADR-RES
OVCAR-3 = tested on: OVCAR-3
OVCAR-4 = tested on: OVCAR-4
OVCAR-5 = tested on: OVCAR-5
OVCAR-8 = tested on: OVCAR-8
PC-3 = tested on: PC-3
RPMI-8226 = tested on: RPMI-8226
RXF 393 = tested on: RXF 393
SF-268 = tested on: SF-268
SF-295 = tested on: SF-295
SF-539 = tested on: SF-539
SK-MEL-28 = tested on: SK-MEL-28
SK-MEL-2 = tested on: SK-MEL-2
SK-MEL-5 = tested on: SK-MEL-5
SK-OV-3 = tested on: SK-OV-3
SN12C = tested on: SN12C
SNB-19 = tested on: SNB-19
SNB-75 = tested on: SNB-75
SR = tested on: SR
SW-620 = tested on: SW-620
T47D = tested on: T47D
TK-10 = tested on: TK-10
U-251 = tested on: U-251
UACC-257 = tested on: UACC-257
UACC-62 = tested on: UACC-62
UO-31 = tested on: UO-31
BT-549 = tested on: BT-549

## C/C(=N\NC(=S)N(C)CCN(C)C(=S)N/N=C(\C)c1ccccn1)c1ccccn1
786-0
  GI50: > 100 µM (inactive)
A498
  GI50: 0.565 µM (active)
A549
  GI50: 2.37 µM (inactive)
ACHN
  GI50: 0.366 µM (active)
CAKI-1
  GI50: 1.78 µM (inactive)
CCRF-CEM
  GI50: 0.428 µM (active)
COLO 205
  GI50: 0.247 µM (active)
DU-145
  GI50: 1.11 µM (active)
EKVX
  GI50: 1.73 µM (inactive)
HCC 2998
  GI50: 10.4 µM (inactive)
HCT-116
  GI50: 0.281 µM (active)
HCT-15
  GI50: 0.45 µM
HL-60
  GI50: 0.365 µM (active)
HOP-62
  GI50: 1.67 µM (inactive)
HOP-92
  GI50: 2.72 µM (inactive)
HT-29
  GI50: 0.224 µM (active)
Hs-578T
  GI50: 25.9 µM (inactive)
IGROV-1
  GI50: 0.465 µM (active)
K562
  GI50: 1.55 µM (inactive)
KM12
  GI50: 0.435 µM (active)
LOX IMVI
  GI50: 0.811 µM (active)
M14
  GI50: > 100 µM (inactive)
MCF7
  GI50: 2.77 µM (inactive)
MDA-MB-231
  GI50: 0.246 µM (active)
MDA-MB-435
  GI50: > 100 µM (inactive)
MDA-N
  GI50: 3.71 µM (inactive)
MOLT-4
  GI50: 0.479 µM (active)
Malme-3M
  GI50: 0.826 µM (active)
NCI-H226
  GI50: 0.316 µM (active)
NCI-H23
  GI50: 4.38 µM (inactive)
NCI-H460
  GI50: 0.509 µM (active)
NCI-H522
  GI50: 0.731 µM (active)
NCI/ADR-RES
  GI50: 0.346 µM (active)
OVCAR-3
  GI50: 0.174 µM (active)
OVCAR-4
  GI50: 0.298 µM (active)
OVCAR-5
  GI50: 5.9 µM (inactive)
OVCAR-8
  GI50: 0.345 µM (active)
PC-3
  GI50: 0.553 µM (active)
RPMI-8226
  GI50: 1.37 µM (inactive)
RXF 393
  GI50: 0.0843 µM (active)
SF-268
  GI50: 0.321 µM (active)
SF-295
  GI50: 0.805 µM (active)
SF-539
  GI50: 1.66 µM (inactive)
SK-MEL-28
  GI50: 1.73 µM (inactive)
SK-MEL-2
  GI50: 10.1 µM (inactive)
SK-MEL-5
  GI50: 0.431 µM (active)
SK-OV-3
  GI50: 4.21 µM (inactive)
SN12C
  GI50: 1.05 µM (active)
SNB-19
  GI50: 3.04 µM (inactive)
SNB-75
  GI50: 0.56 µM (active)
SR
  GI50: 0.697 µM (active)
SW-620
  GI50: 0.662 µM (active)
T47D
  GI50: 1.84 µM (inactive)
TK-10
  GI50: 0.47 µM (active)
U-251
  GI50: 0.745 µM (active)
UACC-257
  GI50: 0.774 µM (active)
UACC-62
  GI50: 2.31 µM (inactive)
UO-31
  GI50: 0.791 µM (active)

## CCN(CC)CCNc1n[n+]([O-])c2ccccc2[n+]1[O-]
786-0
  GI50: 4.74 µM (inactive)
ACHN
  GI50: 3.79 µM (inactive)
BT-549
  GI50: 17.7 µM (inactive)
CCRF-CEM
  GI50: 3.57 µM (inactive)
COLO 205
  GI50: 5.52 µM (inactive)
DU-145
  GI50: 13.9 µM (inactive)
HCC 2998
  GI50: 3.39 µM (inactive)
HCT-116
  GI50: 8.22 µM (inactive)
HCT-15
  GI50: 2 µM
HL-60
  GI50: 2.28 µM (inactive)
HT-29
  GI50: 8.93 µM (inactive)
IGROV-1
  GI50: 2.43 µM (inactive)
K562
  GI50: 3.25 µM (inactive)
KM12
  GI50: 9.98 µM (inactive)
M14
  GI50: 10.1 µM (inactive)
MDA-MB-435
  GI50: 22.3 µM (inactive)
MDA-N
  GI50: 12.2 µM (inactive)
MOLT-4
  GI50: 1.73 µM (inactive)
Malme-3M
  GI50: 8.38 µM (inactive)
NCI-H226
  GI50: 9.93 µM (inactive)
NCI/ADR-RES
  GI50: 18.6 µM (inactive)
OVCAR-3
  GI50: 9.02 µM (inactive)
OVCAR-5
  GI50: 14.7 µM (inactive)
OVCAR-8
  GI50: 8.65 µM (inactive)
PC-3
  GI50: 8.53 µM (inactive)
RPMI-8226
  GI50: 3.06 µM (inactive)
RXF 393
  GI50: 8.63 µM (inactive)
SF-268
  GI50: 18.9 µM (inactive)
SF-295
  GI50: 4.78 µM (inactive)
SF-539
  GI50: 17.7 µM (inactive)
SK-MEL-28
  GI50: 39.3 µM (inactive)
SK-MEL-5
  GI50: 1.57 µM (inactive)
SN12C
  GI50: 3.56 µM (inactive)
SNB-19
  GI50: 12.5 µM (inactive)
SW-620
  GI50: 11.9 µM (inactive)
T47D
  GI50: 5.32 µM (inactive)
TK-10
  GI50: 8.89 µM (inactive)
U-251
  GI50: 12.6 µM (inactive)
UACC-62
  GI50: 3.96 µM (inactive)
UO-31
  GI50: 17.9 µM (inactive)

## O=c1ccn(C2OC(CO)C(O)C2O)c(=O)[nH]1 (centres undefined)
BT-549
  GI50: > 1000 µM (inactive)
CAKI-1
  GI50: > 1000 µM (inactive)
DU-145
  GI50: > 1000 µM (inactive)
M14
  GI50: > 1000 µM (inactive)
MDA-MB-231
  GI50: > 1000 µM (inactive)
NCI-H226
  GI50: > 1000 µM (inactive)
NCI-H522
  GI50: > 1000 µM (inactive)
OVCAR-5
  GI50: > 1000 µM (inactive)
UACC-257
  GI50: > 1000 µM (inactive)

## COC(=O)C1(NC(=O)C(Cc2ccccc2)NC(=O)C(NC(=O)C(CCCCNC(=O)OC(C)(C)C)NC(=O)C(Cc2c[nH]c3ccccc23)NC(=O)C(Cc2ccccc2)NC(=O)OCc2ccccc2)C(C)OC(C)(C)C)CCCC1 (centres undefined) (Cbz-FWK(Boc)T(tBu)F[Ac5c]-OMe; configuration not given here)
786-0
  GI50: > 100 µM (inactive)
A498
  GI50: > 10 µM (inactive)
A549
  GI50: > 100 µM (inactive)
ACHN
  GI50: > 100 µM (inactive)
CAKI-1
  GI50: > 100 µM (inactive)
CCRF-CEM
  GI50: 98.9 µM (inactive)
COLO 205
  GI50: > 100 µM (inactive)
DU-145
  GI50: > 100 µM (inactive)
EKVX
  GI50: > 100 µM (inactive)
HCC 2998
  GI50: > 100 µM (inactive)
HCT-116
  GI50: > 100 µM (inactive)
HCT-15
  GI50: > 100 µM
HL-60
  GI50: > 100 µM (inactive)
HOP-62
  GI50: 65 µM (inactive)
HOP-92
  GI50: 68.9 µM (inactive)
HT-29
  GI50: > 100 µM (inactive)
Hs-578T
  GI50: > 100 µM (inactive)
IGROV-1
  GI50: 88.1 µM (inactive)
K562
  GI50: > 100 µM (inactive)
KM12
  GI50: > 100 µM (inactive)
LOX IMVI
  GI50: 80.9 µM (inactive)
M14
  GI50: 18.9 µM (inactive)
MCF7
  GI50: > 100 µM (inactive)
MDA-MB-231
  GI50: 25.9 µM (inactive)
MDA-MB-435
  GI50: > 100 µM (inactive)
MDA-N
  GI50: > 100 µM (inactive)
Malme-3M
  GI50: > 100 µM (inactive)
NCI-H226
  GI50: > 100 µM (inactive)
NCI-H23
  GI50: > 100 µM (inactive)
NCI-H460
  GI50: > 100 µM (inactive)
NCI-H522
  GI50: 19 µM (inactive)
NCI/ADR-RES
  GI50: > 100 µM (inactive)
OVCAR-3
  GI50: > 100 µM (inactive)
OVCAR-4
  GI50: > 100 µM (inactive)
OVCAR-5
  GI50: 64.1 µM (inactive)
OVCAR-8
  GI50: > 100 µM (inactive)
PC-3
  GI50: > 100 µM (inactive)
RPMI-8226
  GI50: > 100 µM (inactive)
RXF 393
  GI50: > 100 µM (inactive)
SF-268
  GI50: > 100 µM (inactive)
SF-295
  GI50: > 100 µM (inactive)
SF-539
  GI50: > 10 µM (inactive)
SK-MEL-28
  GI50: > 100 µM (inactive)
SK-MEL-2
  GI50: 6.61 µM (inactive)
SK-MEL-5
  GI50: 3.96 µM (inactive)
SK-OV-3
  GI50: 93.3 µM (inactive)
SN12C
  GI50: > 100 µM (inactive)
SNB-19
  GI50: 52.2 µM (inactive)
SNB-75
  GI50: > 100 µM (inactive)
SR
  GI50: > 100 µM (inactive)
SW-620
  GI50: 51.6 µM (inactive)
T47D
  GI50: 24.6 µM (inactive)
TK-10
  GI50: > 100 µM (inactive)
U-251
  GI50: 34 µM (inactive)
UACC-257
  GI50: > 100 µM (inactive)
UACC-62
  GI50: > 100 µM (inactive)
UO-31
  GI50: > 100 µM (inactive)
